Where two headings read alike, the source gives them in different places.
Tested on: human Ewing's sarcoma DM101
Type: in vivo
Conditions: for MTTE / T-C: volume endpoint 2000 mm^3; for tumor volume changes from baseline, Median +/− MAD: nude mice bearing DM101 Ewing's sarcoma; for Tumor Volume Data (Day 11) Median / ΔT/ΔC %: day 11
Description: The resultant solution contains 10 mg/mL of cabazitaxel. Stock solution of cabazitaxel was then diluted in 0.9% sodium chloride.
This efficacy may be quantified, for example, as changes in tumor volume for each treated (T) and control (C) group, which are calculated for each animal and each day by subtracting the tumor volume on the day of first treatment (staging day) from the tumor volume on the specified observation day. This allows calculating the tumor growth inhibition: ΔT/ΔC=(median delta T/median delta C)×100. Individual tumor volume changes from baseline are thereafter analyzed by a non-parametric two-way ANOVA-TYPE (with factors: group and repeated days) followed by a post-hoc contrasts analysis, with Bonferroni-Holm adjustment for multiplicity, comparing all treated groups to the control group. […] A probability less than 5% (p<0.05) was considered as significant.
Based on the National Cancer Institute (NCl) standards, a ΔT/ΔC≦40% is the minimal level required to declare activity.
This efficacy may also be quantified by the number of tumor regressions observed after therapy. Individual mice reporting a tumor volume ≦50% of the Day 0 measurement for two consecutive measurements over a seven day period were considered partial responders (PR). Individual mice lacking palpable tumors (<4×4 mm^2 for two consecutive measurements over a seven day period) were classified as complete responders (CR); a CR that persisted until study completion was considered a tumor-free survivor (TFS).
Efficacy could also be determined at study completion, using tumor growth delay (T-C) in days, which is calculated using the median time to endpoint (MTTE) value for each treatment (T) group versus control (C). A Log Rank multiple comparison test with Bonferroni-Holm adjustment for multiplicity was applied on individual TTE to compare the treated groups to the control group.
The animals subjected to the experiment are subcutaneously grafted unilaterally with approximately 30 mg of a tumor fragment from low passage pediatric patient-derived tumor xenografts. The animals are implanted with a human patient-derived pediatric tumor xenografted in immuno-compromised mice (Harlan; nu/nu). Several days post tumor implantation, mice are randomized according to their tumor burden to the different groups of treatments and controls. The agents are dosed intravenously at 5.8, 9.3, 15 or 24.2 mg/kg every 4 days for a total of 3 doses (q4d×3) to mice bearing a tumor burden at start of therapy (day 0) ranged from 125 to 250 mm^3.
Beginning Day 0, animals were observed daily and weighed twice weekly using a digital scale; data including individual and mean gram weights (Mean We±SD), mean percent weight change versus Day 0 were recorded for each group. Animal deaths were recorded daily and designated as drug-related (D), technical (T), tumor related (B), or unknown (U) based on weight loss and gross observation; single agent or combination groups reporting a mean >20% for a period of 7 days and/or >10% mortality were considered above the maximum tolerated dose (MTD) for that treatment on the evaluated regimen.
The selected tumor model, DM101, was a low passage patient-derived tumor xenograft derived from an Ewing's sarcoma taken from the bone of a patient.
The following end points were used: • Toxicity was declared at dosages inducing ≧20% body weight loss or ≧10% drug death; • Antitumor efficacy was determined by calculating the ΔT/ΔC value in percent on day 11 post treatment initiation, according to the above mentioned formula; • Individual tumor volume changes from baseline were analyzed by a non-parametric two-way ANOVA-TYPE (with factors: group and repeated day from 4 to 14) followed by a post-hoc contrasts analysis, with Bonferroni-Holm adjustment for multiplicity, comparing all treated groups to the control group on day 11. […] The volume endpoint for T-C calculations was chosen to be 2000 mm^3.

Structure (SMILES): CC(=O)O[C@@]12CO[C@@H]1C[C@H](O)[C@@]1(C)C(=O)[C@H](O)C3=C(C)[C@@H](OC(=O)[C@H](O)[C@@H](NC(=O)OC(C)(C)C)c4ccccc4)C[C@@](O)([C@@H](OC(=O)c4ccccc4)[C@H]21)C3(C)C [Docetaxel, docetaxel]
- #CR (5.8 mg/kg i.v./q4d × 3): 0/0/0
- #PR (5.8 mg/kg i.v./q4d × 3): 0/0/0
- #TFS (5.8 mg/kg i.v./q4d × 3): 0/0/0
- Drug Deaths Total (5.8 mg/kg i.v./q4d × 3): 0
- Weight Nadir % (5.8 mg/kg i.v./q4d × 3): −1%
- Weight Nadir Day (5.8 mg/kg i.v./q4d × 3): 4
- Tumor Volume Data (Day 11) Median (5.8 mg/kg i.v./q4d × 3): 366 mm^3
- MTTE (5.8 mg/kg i.v./q4d × 3): 35 days
- T-C (5.8 mg/kg i.v./q4d × 3): 18.1 days
- tumor volume changes from baseline, Median +/− MAD (5.8 mg/kg, DAY 4): 51 +/− 38
- tumor volume changes from baseline, Median +/− MAD (5.8 mg/kg, DAY 7): 98 +/− 79
- tumor volume changes from baseline, Median +/− MAD (5.8 mg/kg, DAY 11): 202 +/− 183
- tumor volume changes from baseline, Median +/− MAD (5.8 mg/kg, DAY 14): 446 +/− 393
- tumor volume changes from baseline, Median +/− MAD (5.8 mg/kg, DAY 17): 640 +/− 621
- tumor volume changes from baseline, Median +/− MAD (5.8 mg/kg, DAY 20): 813 +/− 756
- tumor volume changes from baseline, Median +/− MAD (5.8 mg/kg, DAY 25): 766 +/− 478
- tumor volume changes from baseline, Median +/− MAD (5.8 mg/kg, DAY 28): 1140 +/− 564
- tumor volume changes from baseline, Median +/− MAD (5.8 mg/kg, DAY 32): 1694 +/− 281
- #CR (9.3 mg/kg i.v./q4d × 3): 4
- #PR (9.3 mg/kg i.v./q4d × 3): 4
- #TFS (9.3 mg/kg i.v./q4d × 3): 1
- Drug Deaths Total (9.3 mg/kg i.v./q4d × 3): 0
- Weight Nadir % (9.3 mg/kg i.v./q4d × 3): −4%
- Weight Nadir Day (9.3 mg/kg i.v./q4d × 3): 7
- Tumor Volume Data (Day 11) Median (9.3 mg/kg i.v./q4d × 3): 505 mm^3
- ΔT/ΔC % (9.3 mg/kg i.v./q4d × 3): 36.8%
- MTTE (9.3 mg/kg i.v./q4d × 3): 30.5 days
- T-C (9.3 mg/kg i.v./q4d × 3): 13.6 days
- tumor volume changes from baseline, Median +/− MAD (9.3 mg/kg, DAY 4): 25 +/− 25
- tumor volume changes from baseline, Median +/− MAD (9.3 mg/kg, DAY 7): 96 +/− 172
- tumor volume changes from baseline, Median +/− MAD (9.3 mg/kg, DAY 11): 301 +/− 223
- tumor volume changes from baseline, Median +/− MAD (9.3 mg/kg, DAY 14): 472 +/− 550
- tumor volume changes from baseline, Median +/− MAD (9.3 mg/kg, DAY 17): 750 +/− 828
- tumor volume changes from baseline, Median +/− MAD (9.3 mg/kg, DAY 20): 813 +/− 891
- tumor volume changes from baseline, Median +/− MAD (9.3 mg/kg, DAY 25): −78 +/− 110
- tumor volume changes from baseline, Median +/− MAD (9.3 mg/kg, DAY 28): −78 +/− 36
- tumor volume changes from baseline, Median +/− MAD (9.3 mg/kg, DAY 32): −78 +/− 34
- #CR (15 mg/kg i.v./q4d × 3): 4
- #PR (15 mg/kg i.v./q4d × 3): 4
- #TFS (15 mg/kg i.v./q4d × 3): 1
- Drug Deaths Total (15 mg/kg i.v./q4d × 3): 0
- Weight Nadir % (15 mg/kg i.v./q4d × 3): −6%
- Weight Nadir Day (15 mg/kg i.v./q4d × 3): 14
- Tumor Volume Data (Day 11) Median (15 mg/kg i.v./q4d × 3): 204 mm^3
- ΔT/ΔC % (15 mg/kg i.v./q4d × 3): 8.9%
- MTTE (15 mg/kg i.v./q4d × 3): 50.9 days
- T-C (15 mg/kg i.v./q4d × 3): 34 days
- CR (15 mg/kg q4d×3 IV): 4/9
- TFS (15 mg/kg q4d×3 IV): 1/9
- tumor volume changes from baseline, Median +/− MAD (15 mg/kg, DAY 4): 26 +/− 25
- tumor volume changes from baseline, Median +/− MAD (15 mg/kg, DAY 7): 73 +/− 109
- tumor volume changes from baseline, Median +/− MAD (15 mg/kg, DAY 11): 73 +/− 186
- tumor volume changes from baseline, Median +/− MAD (15 mg/kg, DAY 14): 73 +/− 251
- tumor volume changes from baseline, Median +/− MAD (15 mg/kg, DAY 17): 169 +/− 347
- tumor volume changes from baseline, Median +/− MAD (15 mg/kg, DAY 20): 290 +/− 468
- tumor volume changes from baseline, Median +/− MAD (15 mg/kg, DAY 25): −78 +/− 100
- tumor volume changes from baseline, Median +/− MAD (15 mg/kg, DAY 28): −84.5 +/− 70
- tumor volume changes from baseline, Median +/− MAD (15 mg/kg, DAY 32): −91 +/− 40
- #CR (24.2 mg/kg i.v./q4d × 3): 3
- #PR (24.2 mg/kg i.v./q4d × 3): 4
- #TFS (24.2 mg/kg i.v./q4d × 3): 2
- Drug Deaths Total (24.2 mg/kg i.v./q4d × 3): 0
- Weight Nadir % (24.2 mg/kg i.v./q4d × 3): −17%
- Weight Nadir Day (24.2 mg/kg i.v./q4d × 3): 14
- Tumor Volume Data (Day 11) Median (24.2 mg/kg i.v./q4d × 3): 300 mm^3
- ΔT/ΔC % (24.2 mg/kg i.v./q4d × 3): 14.9%
- MTTE (24.2 mg/kg i.v./q4d × 3): 32.3 days
- T-C (24.2 mg/kg i.v./q4d × 3): 15.4 days
- CR (24.2 mg/kg q4d×3 IV): 3/9
- TFS (24.2 mg/kg q4d×3 IV): 2/9
- tumor volume changes from baseline, Median +/− MAD (24.2 mg/kg, DAY 4): 26 +/− 40
- tumor volume changes from baseline, Median +/− MAD (24.2 mg/kg, DAY 7): 122
- tumor volume changes from baseline, Median +/− MAD (24.2 mg/kg, DAY 11): 122
- tumor volume changes from baseline, Median +/− MAD (24.2 mg/kg, DAY 14): 122
- tumor volume changes from baseline, Median +/− MAD (24.2 mg/kg, DAY 17): 122
- tumor volume changes from baseline, Median +/− MAD (24.2 mg/kg, DAY 20): 394
- tumor volume changes from baseline, Median +/− MAD (24.2 mg/kg, DAY 25): 351.5
- tumor volume changes from baseline, Median +/− MAD (24.2 mg/kg, DAY 28): 681
- tumor volume changes from baseline, Median +/− MAD (24.2 mg/kg, DAY 32): 254

— patent US20140350273A1, “PEDIATRIC USES OF CABAZITAXEL” (AVENTIS PHARMA S.A., priority 2012, published 2014)
